Measured values published in the supplement of paper PMC10307832.

Experiments:
Test in all cases: relative viability (nuclei count vs DMSO), 5 days (fraction); higher = more cells survive
A549 = tested on: A549
Procedure, shortened: (§1)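 Relative viability divides the nuclei count in treated wells by that in vehicle wells. Lung cancer cell lines were seeded in 1536-well plates, dosed by pin tool the next day, and fixed and stained after 5 days in one step with final 0.05% Triton X-100, 1% formaldehyde and 1 ug/ml Hoechst. Dosing was a single drug or a fixed anchor-drug dose plus five library-drug doses (not always all listed) in √10 steps, and values are medians of duplicate plates imaged at 4×.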

COR-L 105 = tested on: COR-L 105
Procedure, shortened: as §1

Calu-6 = tested on: Calu-6
Procedure, shortened: as §1

EBC-1 = tested on: EBC-1
Procedure, shortened: as §1

IA-LM = tested on: IA-LM
Procedure, shortened: as §1

LCLC-103H = tested on: LCLC-103H
Procedure, shortened: as §1

LK-2 = tested on: LK-2
Procedure, shortened: as §1

NCI-H1299 = tested on: NCI-H1299
Procedure, shortened: as §1

NCI-H1355 = tested on: NCI-H1355
Procedure, shortened: as §1

NCI-H1666 = tested on: NCI-H1666
Procedure, shortened: as §1

NCI-H1703 = tested on: NCI-H1703
Procedure, shortened: as §1

NCI-H520 = tested on: NCI-H520
Procedure, shortened: as §1

**Q.** For `Nc1ccn([C@@H]2O[C@H](CO)[C@@H](O)[C@@H]2O)c(=O)n1` [Cytarabine] + CS(=O)(=O)N1CCN(Cc2cc3nc(-c4cccc5[nH]ncc45)nc(N4CCOCC4)c3s2)CC1 [Pictilisib] (partner 1 µM), which relative viability (A549; first compound 0.005 µM) is on record?
**A.** 0.506

**Q.** What about the relative viability (A549; first compound 0.05 µM) of the same molecule?
**A.** 0.539

**Q.** And the relative viability (A549; first compound 0.1581 µM)?
**A.** 0.0667

**Q.** What about the relative viability (A549; first compound 0.5 µM) of the same molecule?
**A.** 0.039

**Q.** And the relative viability (COR-L 105; first compound 0.005 µM)?
**A.** 0.32

**Q.** And the relative viability (COR-L 105; first compound 0.01581 µM)?
**A.** 0.361

**Q.** And the relative viability (COR-L 105; first compound 0.05 µM)?
**A.** 0.312

**Q.** What about the relative viability (COR-L 105; first compound 0.1581 µM) of the same molecule?
**A.** 0.311

**Q.** What about the relative viability (COR-L 105; first compound 0.5 µM) of the same molecule?
**A.** 0.242

**Q.** And the relative viability (Calu-6; first compound 0.005 µM)?
**A.** 0.741

**Q.** And the relative viability (Calu-6; first compound 0.01581 µM)?
**A.** 0.618

**Q.** What about the relative viability (Calu-6; first compound 0.05 µM) of the same molecule?
**A.** 0.775

**Q.** What about the relative viability (Calu-6; first compound 0.1581 µM) of the same molecule?
**A.** 0.371

**Q.** And the relative viability (Calu-6; first compound 0.5 µM)?
**A.** 0.203

**Q.** And the relative viability (EBC-1; first compound 0.005 µM)?
**A.** 0.37

**Q.** And the relative viability (EBC-1; first compound 0.01581 µM)?
**A.** 0.29

**Q.** And the relative viability (EBC-1; first compound 0.05 µM)?
**A.** 0.239

**Q.** What about the relative viability (EBC-1; first compound 0.1581 µM) of the same molecule?
**A.** 0.215

**Q.** And the relative viability (EBC-1; first compound 0.5 µM)?
**A.** 0.193

**Q.** What about the relative viability (IA-LM; first compound 0.005 µM) of the same molecule?
**A.** 0.296

**Q.** What about the relative viability (IA-LM; first compound 0.01581 µM) of the same molecule?
**A.** 0.336

**Q.** What about the relative viability (IA-LM; first compound 0.05 µM) of the same molecule?
**A.** 0.338

**Q.** And the relative viability (IA-LM; first compound 0.1581 µM)?
**A.** 0.154

**Q.** And the relative viability (IA-LM; first compound 0.5 µM)?
**A.** 0.0939

**Q.** What about the relative viability (LCLC-103H; first compound 0.005 µM) of the same molecule?
**A.** 0.614

**Q.** And the relative viability (LCLC-103H; first compound 0.01581 µM)?
**A.** 0.624

**Q.** And the relative viability (LCLC-103H; first compound 0.05 µM)?
**A.** 0.565

**Q.** And the relative viability (LCLC-103H; first compound 0.1581 µM)?
**A.** 0.513

**Q.** What about the relative viability (LCLC-103H; first compound 0.5 µM) of the same molecule?
**A.** 0.617

**Q.** And the relative viability (LK-2; first compound 0.005 µM)?
**A.** 0.531

**Q.** And the relative viability (LK-2; first compound 0.01581 µM)?
**A.** 0.476

**Q.** What about the relative viability (LK-2; first compound 0.05 µM) of the same molecule?
**A.** 0.426

**Q.** And the relative viability (LK-2; first compound 0.1581 µM)?
**A.** 0.23

**Q.** And the relative viability (LK-2; first compound 0.5 µM)?
**A.** 0.235

**Q.** And the relative viability (NCI-H1299; first compound 0.005 µM)?
**A.** 0.819

**Q.** And the relative viability (NCI-H1299; first compound 0.01581 µM)?
**A.** 0.839

**Q.** What about the relative viability (NCI-H1299; first compound 0.05 µM) of the same molecule?
**A.** 0.959

**Q.** What about the relative viability (NCI-H1299; first compound 0.1581 µM) of the same molecule?
**A.** 0.656

**Q.** What about the relative viability (NCI-H1299; first compound 0.5 µM) of the same molecule?
**A.** 0.645

**Q.** What about the relative viability (NCI-H1355; first compound 0.005 µM) of the same molecule?
**A.** 0.398

**Q.** And the relative viability (NCI-H1355; first compound 0.01581 µM)?
**A.** 0.392

**Q.** What about the relative viability (NCI-H1355; first compound 0.05 µM) of the same molecule?
**A.** 0.205

**Q.** And the relative viability (NCI-H1355; first compound 0.1581 µM)?
**A.** 0.302

**Q.** What about the relative viability (NCI-H1355; first compound 0.5 µM) of the same molecule?
**A.** 0.196

**Q.** What about the relative viability (NCI-H1666; first compound 0.005 µM) of the same molecule?
**A.** 0.498

**Q.** And the relative viability (NCI-H1666; first compound 0.01581 µM)?
**A.** 0.345

**Q.** What about the relative viability (NCI-H1666; first compound 0.05 µM) of the same molecule?
**A.** 0.381

**Q.** What about the relative viability (NCI-H1666; first compound 0.1581 µM) of the same molecule?
**A.** 0.229

**Q.** What about the relative viability (NCI-H1666; first compound 0.5 µM) of the same molecule?
**A.** 0.205

**Q.** And the relative viability (NCI-H1703; first compound 0.005 µM)?
**A.** 0.263

**Q.** And the relative viability (NCI-H1703; first compound 0.01581 µM)?
**A.** 0.182

**Q.** And the relative viability (NCI-H1703; first compound 0.05 µM)?
**A.** 0.194

**Q.** What about the relative viability (NCI-H1703; first compound 0.1581 µM) of the same molecule?
**A.** 0.149

**Q.** And the relative viability (NCI-H1703; first compound 0.5 µM)?
**A.** 0.158

**Q.** And the relative viability (NCI-H520; first compound 0.005 µM)?
**A.** 0.228

**Q.** And the relative viability (NCI-H520; first compound 0.01581 µM)?
**A.** 0.276

**Q.** What about the relative viability (NCI-H520; first compound 0.05 µM) of the same molecule?
**A.** 0.288

**Q.** And the relative viability (NCI-H520; first compound 0.1581 µM)?
**A.** 0.27

**Q.** And the relative viability (NCI-H520; first compound 0.5 µM)?
**A.** 0.309

**Q.** Which results are given for `CC(=O)O[C@@]12CO[C@@H]1C[C@H](O)[C@@]1(C)C(=O)[C@H](O)C3=C(C)[C@@H](OC(=O)[C@H](O)[C@@H](NC(=O)OC(C)(C)C)c4ccccc4)C[C@@](O)([C@@H](OC(=O)c4ccccc4)[C@H]21)C3(C)C` [Docetaxel] + C[C@@H](Oc1cc(-c2cnn(C3CCNCC3)c2)cnc1N)c1c(Cl)ccc(F)c1Cl [Crizotinib] (partner 1 µM)?
**A.** relative viability (A549; first compound 0.0002 µM): 0.641; relative viability (A549; first compound 0.000632 µM): 0.432; relative viability (A549; first compound 0.002 µM): 0.0535; relative viability (A549; first compound 0.006325 µM): 0.0545; relative viability (A549; first compound 0.02 µM): 0.0485; relative viability (COR-L 105; first compound 0.0002 µM): 0.768; relative viability (COR-L 105; first compound 0.000632 µM): 0.588; relative viability (COR-L 105; first compound 0.002 µM): 0.361; relative viability (COR-L 105; first compound 0.006325 µM): 0.285; relative viability (COR-L 105; first compound 0.02 µM): 0.248; relative viability (Calu-6; first compound 0.0002 µM): 0.805; relative viability (Calu-6; first compound 0.000632 µM): 0.394; relative viability (Calu-6; first compound 0.002 µM): 0.219; relative viability (Calu-6; first compound 0.006325 µM): 0.159; relative viability (Calu-6; first compound 0.02 µM): 0.105; relative viability (EBC-1; first compound 0.0002 µM): 0.187; relative viability (EBC-1; first compound 0.000632 µM): 0.146; relative viability (EBC-1; first compound 0.002 µM): 0.167; relative viability (EBC-1; first compound 0.006325 µM): 0.163; relative viability (EBC-1; first compound 0.02 µM): 0.151; relative viability (IA-LM; first compound 0.0002 µM): 0.395; relative viability (IA-LM; first compound 0.000632 µM): 0.145; relative viability (IA-LM; first compound 0.002 µM): 0.0955; relative viability (IA-LM; first compound 0.006325 µM): 0.078; relative viability (IA-LM; first compound 0.02 µM): 0.0873; relative viability (LCLC-103H; first compound 0.0002 µM): 1.19; relative viability (LCLC-103H; first compound 0.000632 µM): 1.04; relative viability (LCLC-103H; first compound 0.002 µM): 0.776; relative viability (LCLC-103H; first compound 0.006325 µM): 0.674; relative viability (LCLC-103H; first compound 0.02 µM): 0.756; relative viability (LK-2; first compound 0.0002 µM): 0.209; relative viability (LK-2; first compound 0.000632 µM): 0.202; relative viability (LK-2; first compound 0.002 µM): 0.228; relative viability (LK-2; first compound 0.006325 µM): 0.213; relative viability (LK-2; first compound 0.02 µM): 0.228; relative viability (NCI-H1299; first compound 0.0002 µM): 0.972; relative viability (NCI-H1299; first compound 0.000632 µM): 0.984; relative viability (NCI-H1299; first compound 0.002 µM): 0.695; relative viability (NCI-H1299; first compound 0.006325 µM): 0.392; relative viability (NCI-H1299; first compound 0.02 µM): 0.305; relative viability (NCI-H1355; first compound 0.0002 µM): 1.01; relative viability (NCI-H1355; first compound 0.000632 µM): 0.893; relative viability (NCI-H1355; first compound 0.002 µM): 0.456; relative viability (NCI-H1355; first compound 0.006325 µM): 0.241; relative viability (NCI-H1355; first compound 0.02 µM): 0.198; relative viability (NCI-H1666; first compound 0.0002 µM): 0.67; relative viability (NCI-H1666; first compound 0.000632 µM): 0.508; relative viability (NCI-H1666; first compound 0.002 µM): 0.337; relative viability (NCI-H1666; first compound 0.006325 µM): 0.259; relative viability (NCI-H1666; first compound 0.02 µM): 0.24; relative viability (NCI-H1703; first compound 0.0002 µM): 0.483; relative viability (NCI-H1703; first compound 0.000632 µM): 0.379; relative viability (NCI-H1703; first compound 0.002 µM): 0.226; relative viability (NCI-H1703; first compound 0.006325 µM): 0.0913; relative viability (NCI-H1703; first compound 0.02 µM): 0.133; relative viability (NCI-H520; first compound 0.0002 µM): 0.672; relative viability (NCI-H520; first compound 0.000632 µM): 0.784; relative viability (NCI-H520; first compound 0.002 µM): 0.196; relative viability (NCI-H520; first compound 0.006325 µM): 0.155; relative viability (NCI-H520; first compound 0.02 µM): 0.156
